Measurements published in patent US7527935B2, “G-protein coupled receptor having eicosanoid as ligand and gene thereof” (Mitsubishi Tanabe Pharma Corporation, priority 2002, dated 2009).

How the values were obtained:
[1] = target: T1, fusion protein of TG1019 protein and Giα1 (351Cys→Ile) (Homo sapiens, UniProt P63096+Q8TDS5, C351I/D111G/K206E/T295A); assay: [35S]GTPγS binding to membrane fraction containing TG1019-Giα1 (351Cys→Ile) fusion protein (ligand identification); format: biochemical; conditions: membrane fraction with TG1019-Giα1 (351Cys→Ile) fusion protein
T1 construct: made in house; host or cells: Sf9 insect cells (baculovirus, pVL1392), membrane fraction
T1 sequence (Q8TDS5+P63096 fused Q8TDS5:D111G/Q8TDS5:K206E/Q8TDS5:T295A/P63096:C351I): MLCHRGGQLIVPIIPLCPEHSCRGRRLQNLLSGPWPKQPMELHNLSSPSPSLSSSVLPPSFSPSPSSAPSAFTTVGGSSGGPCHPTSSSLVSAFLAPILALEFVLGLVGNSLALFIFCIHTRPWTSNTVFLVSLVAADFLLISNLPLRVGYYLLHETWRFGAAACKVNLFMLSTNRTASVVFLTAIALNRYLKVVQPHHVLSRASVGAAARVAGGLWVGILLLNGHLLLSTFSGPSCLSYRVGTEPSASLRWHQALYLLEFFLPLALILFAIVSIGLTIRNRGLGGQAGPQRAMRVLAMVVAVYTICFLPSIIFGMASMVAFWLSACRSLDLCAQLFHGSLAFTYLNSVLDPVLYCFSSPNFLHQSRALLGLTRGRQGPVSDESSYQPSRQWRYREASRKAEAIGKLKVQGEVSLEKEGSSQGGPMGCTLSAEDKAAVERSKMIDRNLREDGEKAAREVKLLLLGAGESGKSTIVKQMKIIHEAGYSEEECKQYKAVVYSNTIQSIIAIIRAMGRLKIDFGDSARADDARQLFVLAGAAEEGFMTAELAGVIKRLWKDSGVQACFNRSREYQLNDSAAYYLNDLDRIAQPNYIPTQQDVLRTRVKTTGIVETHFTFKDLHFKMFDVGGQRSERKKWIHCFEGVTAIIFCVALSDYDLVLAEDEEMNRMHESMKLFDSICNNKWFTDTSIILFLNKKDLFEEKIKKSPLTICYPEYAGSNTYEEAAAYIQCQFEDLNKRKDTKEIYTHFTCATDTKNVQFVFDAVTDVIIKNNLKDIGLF
Text: (§1) As stated in Example 1, it is concluded that TG1019 protein is a G-protein coupled receptor. Therefore, using a membrane fraction containing fused protein of TG1019 and G-protein, a ligand is identified as follows, according to a method for detecting a ligand-dependent binding with GTPγS (guanosine 5′-O-(3-thiotriphosphate)) [Wenzel-Seifert, et al., Mol. Pharmacom., Vol. 58, pp. 954-966, 2000; Bahia, et al., Biochemistry, Vol. 37, pp. 11555-11562, 1998].
Sf9 cells were inoculated onto a 10 cm Petri dish coated with collagen to about 70% confluence, and added thereto were Virus solution III (100 μl) obtained above and 12 ml of a culture medium, and the mixture was cultured at 27° C. for 4 days. The obtained cells were washed with a cooled PBS (Phosphate buffered saline, pH 7.4), and suspended in 3.6 ml of a cooled solution buffer [20 mM Tris-HCl, pH 7.5, 1 mM EDTA, 0.2 mM phenylmethylsulfonyl fluoride, 10 μg/ml pepstatin, 10 μg/ml leupeptin, and 2 μg/ml aprotinin], and the cells were homogenized by means of a Teflon homogenizer. This cell homogenate was centrifuged (600×g, 10 minutes), and the resultant supernatant was further centrifuged (50,000×g, 20 minutes). The obtained sediments were suspended in 450 μl of a cooled reaction buffer [20 mM Tris-HCl, pH 7.5, 50 mM sodium chloride, 10 mM magnesium chloride] by means of a Teflon homogenizer, to prepare a membrane fraction containing a fusion protein.
The membrane fraction (450 μl) obtained above (2) was suspended in a reaction buffer (7.54 ml), and added thereto was GDP (10 mM, 10 μl). To 160 μl of this solution was added 20 μl of a test compound. After incubating the mixture at 30° C. for 10 minutes, 20 μl of [^35S] GTPγS (5 nM, 5 nCi/μl: available from Amersham Pharmacia Biotech) was added to start reaction. After incubating the mixture at 30° C. for one hour, the reaction was terminated by filtration through a glass filter (UniFilter-96GF/B, available from Packard). The filter was washed with 200 μl of a cooled reaction buffer for 3 times, and an amount of the [^35S] GTPγS (a binding amount to the membrane fraction) on the filter was measured by liquid scintillation counting. From the thus measured [^35S] GTPγS binding amount was subtracted a nonspecific binding amount (a binding amount measured in the presence of 10 μM GTPγS), to obtain a specific binding amount of [^35S ] GTPγS.

[2] = tested on: TG1019 (5-oxo-ETE receptor); assay: Intracellular calcium level in CHO cells stably expressing TG1019; format: cell-based, human; conditions: FuraII 340/380 nm ratio
Procedure: (1) Preparation of cells stably expressing TG1019 Cells stably expressing TG1019 (the receptor protein of the present invention) and cells not expressing TG1019 were prepared by introducing to CHO cells the TG1019 protein expression vector prepared in Example 5 and the control vector, as described below.
The cells stably expressing TG1019 prepared in the above section (1) was incubated in DMEM/F12 medium supplemented with 10% fetal bovine serum at 37° C. in a CO2 incubator. To the cells which were 80 to 90% confluent, was added a cell dissociation buffer (Cell Dissociation Buffer Enzyme-free PBS-based, available from Invitrogen), and cells were dissociated by incubating at 37° C. for 5 minutes. […]
The cells after loading were centrifuged once with an assay buffer, to remove supernatant, and then, they were suspended in an assay buffer to have a concentration of 3.7 to 6.3×10^6 cells/ml. This cell suspension was portioned into a 96 well plate by 80 μl/well, and the plate was set in a fluorescence measuring device (FDSS6000, [Hamamatsu Photonics]), and the reaction was started by adding a solution containing 5-oxo-ETE or 5-HETE in a 5 fold concentration dissolved in an assay buffer, by 20 μl/well. The measurement was done by measuring fluorescence intensity at 510 nm, with excitation wavelength of 340 nm and 380 nm.

[3] = target: T2, fusion protein of TG1019 protein and Gqα (Homo sapiens, UniProt Q8TDS5, D111G/K206E/T295A); assay: [35S]GTPγS binding to membrane fraction containing TG1019-Gqα fusion protein; format: biochemical; conditions: membrane fraction with TG1019-Gqα fusion protein; increase small compared to Giα
T2 construct: made in house; host or cells: Sf9 insect cells (baculovirus, pVL1392), membrane fraction
T2 sequence (Q8TDS5 with tags, fused parts or gaps D111G/K206E/T295A): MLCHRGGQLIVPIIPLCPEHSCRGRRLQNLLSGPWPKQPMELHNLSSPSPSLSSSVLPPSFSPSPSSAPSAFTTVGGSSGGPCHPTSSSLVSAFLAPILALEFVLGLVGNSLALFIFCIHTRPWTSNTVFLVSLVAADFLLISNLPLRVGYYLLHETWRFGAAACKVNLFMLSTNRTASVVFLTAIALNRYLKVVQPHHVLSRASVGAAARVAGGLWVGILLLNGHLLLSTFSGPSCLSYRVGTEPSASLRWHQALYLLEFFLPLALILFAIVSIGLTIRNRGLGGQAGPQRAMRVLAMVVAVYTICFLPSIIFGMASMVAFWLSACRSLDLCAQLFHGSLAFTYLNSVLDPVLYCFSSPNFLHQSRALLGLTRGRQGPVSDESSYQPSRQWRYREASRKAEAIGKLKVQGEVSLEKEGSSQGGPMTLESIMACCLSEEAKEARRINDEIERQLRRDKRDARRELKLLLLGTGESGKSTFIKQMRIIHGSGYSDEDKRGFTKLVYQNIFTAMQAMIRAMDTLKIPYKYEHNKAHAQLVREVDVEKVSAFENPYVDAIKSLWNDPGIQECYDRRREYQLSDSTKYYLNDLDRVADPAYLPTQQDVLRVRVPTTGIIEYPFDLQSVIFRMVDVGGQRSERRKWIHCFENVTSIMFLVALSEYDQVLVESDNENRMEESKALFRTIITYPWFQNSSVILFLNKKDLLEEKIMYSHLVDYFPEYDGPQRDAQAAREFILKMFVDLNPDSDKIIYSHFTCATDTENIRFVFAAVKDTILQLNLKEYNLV
Text: as §1
Sf9 cells were inoculated onto a 10 cm Petri dish coated with collagen to about 70% confluence, and added thereto were Virus solution III (100 μl) obtained above and 12 ml of a culture medium, and the mixture was cultured at 27° C. for 4 days. […]
The membrane fraction (450 μl) obtained above (2) was suspended in a reaction buffer (7.54 ml), and added thereto was GDP (10 mM, 10 μl). […] GTPγS (a binding amount to the membrane fraction) on the filter was measured by liquid scintillation counting. From the thus measured [^35S] GTPγS binding amount was subtracted a nonspecific binding amount (a binding amount measured in the presence of 10 μM GTPγS), to obtain a specific binding amount of [^35S ] […]

[4] = target: T3, fusion protein of TG1019 protein and Giα1 (Homo sapiens, UniProt P63096+Q8TDS5, C351I/D111G/K206E/T295A); assay: Antagonist assay: inhibition of 5-oxo-ETE-stimulated G-protein activation ([35S]GTPγS binding) of TG1019-Giα1 fusion membrane fraction; format: biochemical; conditions: inhibition of G-protein activating effect of TG1019 by 5-oxo-ETE 0.1 μM
T3 construct: made in house; host or cells: Sf9 insect cells (baculovirus, pVL1392), membrane fraction
T3 sequence (Q8TDS5+P63096 fused Q8TDS5:D111G/Q8TDS5:K206E/Q8TDS5:T295A/P63096:C351I): as the sequence (Q8TDS5+P63096 fused Q8TDS5:D111G/Q8TDS5:K206E/Q8TDS5:T295A/P63096:C351I) above
Procedure: In the presence of 5-oxo-ETE (a ligand which acts as an agonist) and a test compound, a G-protein activating effect of TG1019 protein based on 5-oxo-ETE stimulation was detected, and an antagonistic effect of the test compound was examined.
Detection of the G-protein activation was carried out in a similar manner as in Example 3 (3) mentioned above, using a membrane fraction containing a fusion protein of TG1019 protein and Giα1 and a labeled GTPγS.
Specifically, a membrane fraction (450 μl) containing a fusion protein of TG1019 protein and Giα1 was suspended in a reaction solution (7.54 ml), and added thereto was 10 μl of GDP (10 mM). To 160 μl of this solution were added 5-oxo-ETE (the final concentration of 0.1 μM) and a test compound at various concentrations (0M, 10^−7M -10^−5M), and the mixture was incubated at 30° C. for 10 minutes (a total amount of 5-oxo-ETE and the test compound: 20 μl).
Added thereto was 20 μl of [^35S] GTPγS to start a reaction. After incubation at 30° C. for one hour, the reaction was terminated by filtration through a glass filter.
An amount of the [^35S] GTPγS (a binding amount to the membrane fraction) on the filter was measured by liquid scintillation counting. From the thus measured [^35S] GTPγS amount was subtracted a nonspecific binding amount (a binding amount measured in the presence of 10 μM GTPγS), to obtain a specific binding amount.

[5] = tested on: PC3 human prostate cancer cells; assay: Apoptosis analysis (annexin V / PI flow cytometry) in PC3 cells; format: cell-based; conditions: 20 μl of 1 mM DHA in 2 ml, 2 hours
Procedure: PC3 human prostate cancer cells, which had been cultured in RPMI1640 culture medium supplemented with 10% fetal bovine serum were dissociated by trypsin-EDTA solution (GibcoBRL), and suspended in RPMI1640 culture medium supplemented with 0.5% fetal bovine serum. The cells were plated onto a 6 cm Petri dish to 2×10^5 cells/dish, and cultured at 37° C. for 18 hours in a CO2 incubator. The supernatant was removed and 1980 μl of the same medium was added, and 20 μl of 1 mM DHA was further added thereto, and the mixture was cultured at 37° C. for 2 hours in a CO2 incubator.
In addition, as a test in the presence of 5-oxo-ETE, 1960 μl of RPMI1640 culture medium supplemented with 0.5% fetal bovine serum was added, and 20 μl of a 100 μM 5-oxo-ETE solution and 20 μl of a 1 mM DHA solution were further added thereto, and the cells were cultured in a similar manner as described above.
The adhered cells were removed by a cell scraper, transferred to a 1.5 ml tube, and centrifuged at 800×g for 5 minutes at 4° C., to collect suspended and adhered cells. […] The cells were suspended in 100 μl of a FITC-Annexin solution, and after 15 minutes of reaction under light-shielded condition at room temperature, 300 μl of Binding buffer was added thereto, and the FITC-Annexin bound to the cells and propidium iodide (PI) uptake into the cells were measured, by means of flow cytometer [Becton Dickinson].

| IC50 [4] [µM] | SMILES | specific binding amount of [35S]GTPγS [1] | other results |
| --- | --- | --- | --- |
|  | CCCCC/C=C\C/C=C\C/C=C\C=C\C(O)CCCC(=O)O (centres unmarked) [5-HETE, 5-hydroxyeicosa-6E,8Z,11Z,14Z-tetraenoic acid] | increased in a concentration-dependent manner | change in intracellular calcium level [2]: increase in intracellular calcium level |
|  | CCCCCCCC/C=C\C/C=C\C=C\C(O)CCCC(=O)O (centres unmarked) [5-HETrE, 5-hydroxyeicosa-6E,8Z,11Z-trienoic acid] | increased in a concentration-dependent manner |  |
|  | CCCCC/C=C\C/C=C\C/C=C\C=C\C(CCCC(=O)O)OO (centres unmarked) [5-HPETE, 5-hydroperoxyeicosa-6E,8Z,11Z,14Z-tetraenoic acid] | increased in a concentration-dependent manner | specific binding amount of [35S]GTPγS [3]: increased |
| 1.6 ± 0.2 | CC/C=C\C/C=C\C/C=C\C/C=C\C/C=C\C/C=C\CCC(=O)O [DHA, 4Z, 7Z, 10Z, 13Z, 16Z, 19Z-docosahexaenoic acid] |  | induction of apoptosis (cells annexin positive, PI uptake negative) [5]: induces apoptosis of PC3 cells |
| 6 ± 1.2 | CC/C=C\C/C=C\C/C=C\C/C=C\C/C=C\CCCC(=O)O [EPA, 5Z, 8Z, 11Z, 14Z, 17Z-eicosapentaenoic acid] |  |  |
|  | CCCCCCCCC#CCC#CCC#CCCCC(=O)O [ETI, 5,8,11-eicosatriynoic acid] | increased in a concentration-dependent manner |  |
| 5.1 ± 0.6 | CC/C=C\C/C=C\C/C=C\CCCCCCCCCC(=O)O [Eicosa-11Z, 14Z, 17Z-trienoic acid] |  |  |
|  | CCCCC/C=C\C/C=C\C/C=C\C/C=C\CCCC(=O)O [arachidonic acid] | increased in a concentration-dependent manner |  |
|  | CCCCCCCC/C=C\C/C=C\C/C=C\CCCC(=O)O [eicosa-5Z,8Z,11Z-trienoic acid] | increased in a concentration-dependent manner |  |
|  | CCCCCCCCCCC/C=C\C/C=C\CCCC(=O)O [eicosa-5Z,8Z-dienoic acid] | increased in a concentration-dependent manner |  |

| SMILES | IC50 [4] [µM] | specific binding amount of [35S]GTPγS [1] | other results |
| --- | --- | --- | --- |
| CCCCC/C=C\C/C=C\C/C=C\CCCCCCC(=O)O [Dihomo-γ-linolenic accid] | 3.7 ± 0.7 |  |  |
